According to US9309242B2, “Substituted pyrido[2,3-b]pyrazines as FGFR kinase inhibitors” (priority 2011, dated 2016):
pIC50: −log10 of the molar value.

What was measured:
[1] = test system: Ba/F3-FGFR1-transfected cells; assay: Ba/F3-FGFR1 (plus IL3) cellular proliferation assay, counterscreen with 10 ng/ml murine IL3; type: cell-based; details: plus IL3 (10 ng/ml murine IL3, counterscreen); read-out: BAF3-FGFR1 (PLUS IL3) pIC50 (converted)
How it was run: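 Proliferation read-out: resazurin-based Alamar Blue fluorescence (540/590 nm) after 4 h, following 24 h compound treatment of 20000 Ba/F3-FGFR1 cells per well in 10% FBS RPMI at 37° C. IL3 counterscreen used the same protocol plus 10 ng/ml murine IL3.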

[2] = molecular target: T1, Ba/F3-FGFR1-transfected cells (Homo sapiens, UniProt P11362); assay: Ba/F3-FGFR1 (minus IL3) cellular proliferation assay, Alamar Blue; type: cell-based
T1 construct: BAF3-FGFR1 (MIN IL3) pIC50; other: minus IL3
How it was run: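 Read-out: resazurin reduction, fluorescence ex 540 nm/em 590 nm after 4 h Alamar Blue at 37 °C. Before that, FGFR1-transfected Ba/F3 cells (20000/well) sat with compound for 24 h in RPMI-1640/10% FBS/2 mM L-Gln.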

[3] = molecular target: Ba/F3-FGFR4-transfected cells (Homo sapiens, UniProt P22455); assay: Ba/F3-FGFR4 cellular proliferation assay, Alamar Blue; type: cell-based
How it was run: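 Proliferation is measured by resazurin reduction: after 24 h compound treatment at 37 °C in RPMI-1640/10% FBS, cells get Alamar Blue for 4 h before RFU read (540/590 nm). Each well holds 20000 Ba/F3-FGFR4-transfected cells.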

[4] = molecular target: FGFR4 (h) (Homo sapiens, UniProt P22455); assay: FGFR4 (enzymatic assay), TR-FRET; type: biochemical; details: FGFR 4 pIC50, enzymatic assay
[5] = molecular target: KDR (h) (Homo sapiens, UniProt P35968); assay: KDR (VEGFR2) (enzymatic assay), TR-FRET; type: biochemical; details: read-out: VEGFR 2 (KDR) pIC50 (converted)
How it was run: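 TR-FRET readout (ex 340, em 620/655 nm) in RFU after EDTA stop with Eu-anti-phosphotyrosine and SA-XL665 for 60 min. The preceding 120-min room-temperature kinase step used 150 ng/ml KDR (h), 3 μM ATP, 500 nM biotinylated Flt3 peptide, MnCl2-containing HEPES buffer pH 7.5, 1% DMSO.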

[6] = molecular target: T2, Ba/F3-FGFR3-transfected cells (Homo sapiens, UniProt P22607); assay: Ba/F3-FGFR3 (minus IL3) cellular proliferation assay, Alamar Blue; type: cell-based
T2 construct: BAF3-FGFR3 (MIN IL3) pIC50; other: minus IL3
How it was run: (§1)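 Read-out: resazurin-based Alamar Blue fluorescence (ex 540 nm, em 590 nm) after a 4 h dye incubation. FGFR3-transfected Ba/F3 cells, 20000 per well, are exposed to compound for 24 h at 37° C in RPMI-1640/10% FBS. Plus-IL3 counterscreen adds 10 ng/ml murine IL3.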

[7] = molecular target: FGFR2 (h) (Homo sapiens, UniProt P21802); assay: FGFR2 (enzymatic assay), TR-FRET; type: biochemical; details: enzymatic assay; read-out: FGFR 2 pIC50 (converted)
How it was run: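 At low ATP (0.4 μM), enzyme activity of human FGFR2 (150 ng/ml) toward biotinylated Flt3 substrate (500 nM) was followed with test compound present. Reactions ran in 50 mM HEPES pH 7.5, 6 mM MnCl2, 1 mM DTT, 0.1 mM Na3VO4, 0.01% Triton-X-100, 1% DMSO.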

[8] = molecular target: FGFR3 (h) (Homo sapiens, UniProt P22607); assay: FGFR3 (enzymatic assay), TR-FRET; type: biochemical; details: read-out: FGFR 3 pIC50 (converted)
Text: Time-Resolved Fluorescence Resonance Energy Transfer (TR-FRET) signal (ex340 nm.

[9] = test system: Ba/F3-FGFR3-transfected cells; assay: Ba/F3-FGFR3 (plus IL3) cellular proliferation assay, counterscreen with 10 ng/ml murine IL3; type: cell-based; details: plus IL3 (10 ng/ml murine IL3, counterscreen); read-out: BAF3-FGFR3 (PLUS IL3) pIC50 (converted)
How it was run: as §1

[10] = molecular target: FGFR1 (h) (Homo sapiens, UniProt P11362); assay: FGFR1 (enzymatic assay), TR-FRET; type: biochemical; details: read-out: FGFR 1 pIC50 (converted)

Chain of FGFR4 (h) (P22455 22-802): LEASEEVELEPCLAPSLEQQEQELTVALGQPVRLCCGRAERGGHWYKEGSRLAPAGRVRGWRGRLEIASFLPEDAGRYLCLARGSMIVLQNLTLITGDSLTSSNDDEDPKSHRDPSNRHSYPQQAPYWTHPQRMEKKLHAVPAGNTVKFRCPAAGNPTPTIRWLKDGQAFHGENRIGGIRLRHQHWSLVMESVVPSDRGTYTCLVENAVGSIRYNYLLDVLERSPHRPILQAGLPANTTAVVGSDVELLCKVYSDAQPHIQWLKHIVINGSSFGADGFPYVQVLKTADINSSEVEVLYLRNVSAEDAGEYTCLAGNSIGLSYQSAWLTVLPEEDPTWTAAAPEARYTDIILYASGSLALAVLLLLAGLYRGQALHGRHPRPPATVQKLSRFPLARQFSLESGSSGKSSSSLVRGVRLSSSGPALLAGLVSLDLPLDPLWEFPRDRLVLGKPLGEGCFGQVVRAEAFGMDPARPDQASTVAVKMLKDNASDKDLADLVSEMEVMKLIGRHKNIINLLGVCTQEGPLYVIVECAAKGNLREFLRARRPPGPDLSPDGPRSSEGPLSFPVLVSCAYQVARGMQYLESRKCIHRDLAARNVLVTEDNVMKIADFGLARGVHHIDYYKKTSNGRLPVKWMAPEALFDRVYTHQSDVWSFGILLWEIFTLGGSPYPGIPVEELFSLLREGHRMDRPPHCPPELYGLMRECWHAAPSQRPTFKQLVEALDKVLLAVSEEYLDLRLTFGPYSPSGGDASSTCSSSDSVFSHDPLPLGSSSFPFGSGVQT
Chain of FGFR3 (h) (P22607 23-806): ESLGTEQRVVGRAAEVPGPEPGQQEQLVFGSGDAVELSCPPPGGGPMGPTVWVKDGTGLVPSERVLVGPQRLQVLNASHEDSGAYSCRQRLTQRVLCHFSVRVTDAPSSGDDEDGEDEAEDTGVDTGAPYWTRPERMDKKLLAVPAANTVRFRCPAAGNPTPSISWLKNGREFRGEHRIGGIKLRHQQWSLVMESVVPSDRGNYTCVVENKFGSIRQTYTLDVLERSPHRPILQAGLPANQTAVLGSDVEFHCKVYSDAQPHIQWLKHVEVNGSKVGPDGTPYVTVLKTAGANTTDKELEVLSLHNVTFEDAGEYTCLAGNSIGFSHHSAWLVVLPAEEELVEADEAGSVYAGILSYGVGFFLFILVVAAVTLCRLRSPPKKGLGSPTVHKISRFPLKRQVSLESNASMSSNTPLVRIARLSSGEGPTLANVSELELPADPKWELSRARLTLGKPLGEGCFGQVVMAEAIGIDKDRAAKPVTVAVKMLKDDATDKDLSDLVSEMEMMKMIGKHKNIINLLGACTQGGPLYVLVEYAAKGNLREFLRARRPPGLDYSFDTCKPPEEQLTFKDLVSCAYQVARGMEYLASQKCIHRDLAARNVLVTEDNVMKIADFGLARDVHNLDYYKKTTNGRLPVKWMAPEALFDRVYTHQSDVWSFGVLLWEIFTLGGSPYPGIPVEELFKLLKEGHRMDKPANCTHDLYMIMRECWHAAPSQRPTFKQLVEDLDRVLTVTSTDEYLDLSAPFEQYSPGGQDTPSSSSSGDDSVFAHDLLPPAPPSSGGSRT
Chain of Ba/F3-FGFR4-transfected cells (P22455 whole entry, change not shown): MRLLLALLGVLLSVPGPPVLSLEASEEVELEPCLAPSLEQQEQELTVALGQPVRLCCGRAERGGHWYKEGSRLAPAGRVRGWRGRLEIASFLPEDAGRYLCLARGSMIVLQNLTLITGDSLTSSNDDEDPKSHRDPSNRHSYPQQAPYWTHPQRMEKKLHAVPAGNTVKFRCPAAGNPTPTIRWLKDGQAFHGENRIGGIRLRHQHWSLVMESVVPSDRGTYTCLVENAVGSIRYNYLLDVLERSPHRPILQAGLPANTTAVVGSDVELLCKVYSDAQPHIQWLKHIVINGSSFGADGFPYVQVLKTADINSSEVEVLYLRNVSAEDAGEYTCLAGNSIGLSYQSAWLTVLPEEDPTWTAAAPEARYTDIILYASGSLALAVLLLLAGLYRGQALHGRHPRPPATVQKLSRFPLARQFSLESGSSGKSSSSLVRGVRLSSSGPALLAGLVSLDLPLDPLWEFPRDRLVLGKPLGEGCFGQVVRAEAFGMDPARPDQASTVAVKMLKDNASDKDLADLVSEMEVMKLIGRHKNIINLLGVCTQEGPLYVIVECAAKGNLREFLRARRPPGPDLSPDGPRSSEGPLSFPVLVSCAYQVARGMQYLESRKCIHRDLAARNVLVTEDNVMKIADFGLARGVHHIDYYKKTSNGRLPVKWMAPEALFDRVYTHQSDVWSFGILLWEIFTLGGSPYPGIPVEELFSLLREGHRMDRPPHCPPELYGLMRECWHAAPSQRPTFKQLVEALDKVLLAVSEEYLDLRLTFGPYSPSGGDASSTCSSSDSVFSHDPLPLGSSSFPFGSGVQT
Chain of KDR (h) (P35968 20-1356): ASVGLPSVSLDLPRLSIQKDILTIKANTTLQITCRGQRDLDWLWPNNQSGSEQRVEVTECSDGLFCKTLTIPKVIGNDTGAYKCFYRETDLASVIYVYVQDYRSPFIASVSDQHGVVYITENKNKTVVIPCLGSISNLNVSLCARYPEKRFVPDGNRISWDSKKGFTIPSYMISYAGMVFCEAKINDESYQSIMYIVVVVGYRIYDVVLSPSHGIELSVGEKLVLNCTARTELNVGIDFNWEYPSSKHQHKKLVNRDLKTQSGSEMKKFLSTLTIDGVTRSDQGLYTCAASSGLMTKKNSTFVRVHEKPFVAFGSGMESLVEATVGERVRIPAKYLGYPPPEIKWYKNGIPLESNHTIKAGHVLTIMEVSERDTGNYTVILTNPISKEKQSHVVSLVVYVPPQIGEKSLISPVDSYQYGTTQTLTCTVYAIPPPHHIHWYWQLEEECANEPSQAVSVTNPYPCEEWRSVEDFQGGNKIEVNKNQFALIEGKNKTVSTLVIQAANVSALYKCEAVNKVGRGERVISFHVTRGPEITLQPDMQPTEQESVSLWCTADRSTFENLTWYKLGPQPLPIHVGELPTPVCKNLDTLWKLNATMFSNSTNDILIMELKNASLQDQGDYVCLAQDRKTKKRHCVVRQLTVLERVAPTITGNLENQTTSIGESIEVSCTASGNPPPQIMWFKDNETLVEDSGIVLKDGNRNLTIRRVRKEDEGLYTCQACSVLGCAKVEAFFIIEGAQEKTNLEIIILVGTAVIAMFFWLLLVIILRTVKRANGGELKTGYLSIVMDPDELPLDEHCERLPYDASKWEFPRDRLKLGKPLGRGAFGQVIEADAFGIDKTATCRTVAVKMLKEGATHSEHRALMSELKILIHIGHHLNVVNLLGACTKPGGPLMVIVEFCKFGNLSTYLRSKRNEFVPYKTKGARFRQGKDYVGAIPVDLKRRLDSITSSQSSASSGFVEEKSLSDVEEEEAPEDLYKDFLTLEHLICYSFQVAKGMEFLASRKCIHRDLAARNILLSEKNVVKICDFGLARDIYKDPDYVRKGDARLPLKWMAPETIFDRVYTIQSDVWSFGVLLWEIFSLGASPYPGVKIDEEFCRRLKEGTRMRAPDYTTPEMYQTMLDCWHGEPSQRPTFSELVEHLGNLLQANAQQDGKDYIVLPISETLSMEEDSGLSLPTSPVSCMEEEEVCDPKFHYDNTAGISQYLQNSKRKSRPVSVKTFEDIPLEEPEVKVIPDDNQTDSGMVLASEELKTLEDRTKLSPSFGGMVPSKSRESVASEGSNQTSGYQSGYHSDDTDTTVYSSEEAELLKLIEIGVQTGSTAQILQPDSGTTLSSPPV
Chain of FGFR2 (h) (P21802 22-821): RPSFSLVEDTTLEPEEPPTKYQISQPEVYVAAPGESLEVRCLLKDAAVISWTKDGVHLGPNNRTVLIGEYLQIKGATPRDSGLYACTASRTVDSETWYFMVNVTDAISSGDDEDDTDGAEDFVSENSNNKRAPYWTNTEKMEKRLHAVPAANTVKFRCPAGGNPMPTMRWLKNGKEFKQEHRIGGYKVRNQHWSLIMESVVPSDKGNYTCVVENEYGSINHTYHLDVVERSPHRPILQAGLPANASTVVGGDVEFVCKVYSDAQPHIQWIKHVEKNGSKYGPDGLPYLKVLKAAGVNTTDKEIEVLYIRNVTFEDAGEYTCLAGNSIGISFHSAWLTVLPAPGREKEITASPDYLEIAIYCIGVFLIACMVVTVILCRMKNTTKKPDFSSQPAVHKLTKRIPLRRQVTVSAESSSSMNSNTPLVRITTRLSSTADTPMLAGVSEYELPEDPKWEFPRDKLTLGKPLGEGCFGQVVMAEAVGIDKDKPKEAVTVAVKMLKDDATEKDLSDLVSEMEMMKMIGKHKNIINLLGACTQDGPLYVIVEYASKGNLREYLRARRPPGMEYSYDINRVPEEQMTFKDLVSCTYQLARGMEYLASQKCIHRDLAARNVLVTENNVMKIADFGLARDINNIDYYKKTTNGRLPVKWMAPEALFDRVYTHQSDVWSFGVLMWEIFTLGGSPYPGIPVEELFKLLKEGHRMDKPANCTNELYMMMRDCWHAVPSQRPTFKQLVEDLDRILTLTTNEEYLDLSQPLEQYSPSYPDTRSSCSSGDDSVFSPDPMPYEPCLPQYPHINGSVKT

COc1cc(OC)c(F)c(N(Cc2c(C)noc2C)c2ccc3ncc(-c4cnn(C)c4)nc3n2)c1 [Compound 178]
IC50 [1]: > 10 µM | BAF3-FGFR1 (MIN IL3) pIC50 [2]: 6.20 | BAF3-FGFR4 pIC50 [3]: 5.83 | pIC50 [4]: 7.71 | IC50 [5]: 61.7 nM | BAF3-FGFR3 (MIN IL3) pIC50 [6]: 6.29 | IC50 [7]: 7.41 nM | IC50 [8]: 3.55 nM | IC50 [9]: > 10 µM | IC50 [10]: 11.2 nM

COc1cc(/N=c2\ccc3ncc(-c4cnn(C)c4)nc3n2Cc2c(C)noc2C)c(F)c(OC)c1 [Compound 179]
IC50 [1]: > 3.02 µM | BAF3-FGFR1 (MIN IL3) pIC50 [2]: <5.52 | BAF3-FGFR4 pIC50 [3]: <5.52 | pIC50 [4]: 8.46 | IC50 [5]: 12.3 nM | BAF3-FGFR3 (MIN IL3) pIC50 [6]: <5.52 | IC50 [7]: 2.57 nM | IC50 [8]: 1.26 nM | IC50 [9]: > 3.02 µM | IC50 [10]: 2.95 nM

COc1cc(OC)c(F)c(N(Cc2cc(C)on2)c2ccc3ncc(-c4cnn(C)c4)nc3n2)c1 [Compound 180]
IC50 [1]: > 10 µM | BAF3-FGFR1 (MIN IL3) pIC50 [2]: 7.43 | BAF3-FGFR4 pIC50 [3]: 7.10 | pIC50 [4]: 8.78 | IC50 [5]: 9.55 nM | BAF3-FGFR3 (MIN IL3) pIC50 [6]: 7.36 | IC50 [7]: 1.62 nM | IC50 [8]: 1.07 nM | IC50 [9]: > 10 µM | IC50 [10]: 1.1 nM

COc1cc(/N=c2\ccc3ncc(-c4cnn(C)c4)nc3n2Cc2cc(C)on2)c(F)c(OC)c1 [Compound 181]
IC50 [1]: > 10 µM | BAF3-FGFR1 (MIN IL3) pIC50 [2]: 7.76 | BAF3-FGFR4 pIC50 [3]: 7.55 | pIC50 [4]: 8.98 | IC50 [5]: 6.76 nM | BAF3-FGFR3 (MIN IL3) pIC50 [6]: 8.05 | IC50 [7]: 2.19 nM | IC50 [8]: 1.55 nM | IC50 [9]: > 10 µM | IC50 [10]: 1.51 nM

COc1cc(OC)cc(N(Cc2ncc[nH]2)c2ccc3ncc(-c4cccnc4)nc3n2)c1 [Compound 182]
IC50 [1]: > 10 µM | BAF3-FGFR1 (MIN IL3) pIC50 [2]: 7.60 | BAF3-FGFR4 pIC50 [3]: 7.17 | pIC50 [4]: 8.63 | IC50 [5]: 64.6 nM | BAF3-FGFR3 (MIN IL3) pIC50 [6]: ~7.76 | IC50 [7]: 2.04 nM | IC50 [8]: 1.15 nM | IC50 [9]: > 10 µM | IC50 [10]: 1.7 nM

COc1cc(/N=c2\ccc3ncc(-c4cnn(C)c4)nc3n2Cc2cc(C)no2)c(F)c(OC)c1 [Compound 184]
IC50 [1]: > 10 µM | BAF3-FGFR1 (MIN IL3) pIC50 [2]: ~8.34 | BAF3-FGFR4 pIC50 [3]: 8.03 | pIC50 [4]: 8.93 | IC50 [5]: 4.79 nM | BAF3-FGFR3 (MIN IL3) pIC50 [6]: ~8.15 | IC50 [7]: 2.19 nM | IC50 [8]: 1.35 nM | IC50 [9]: > 10 µM | IC50 [10]: 0.977 nM

COc1cc(OC)c(F)c(N(Cc2cc(C)no2)c2ccc3ncc(-c4cnn(C)c4)nc3n2)c1 [Compound 185]
IC50 [1]: > 10 µM | BAF3-FGFR1 (MIN IL3) pIC50 [2]: 7.59 | BAF3-FGFR4 pIC50 [3]: 7.39 | pIC50 [4]: 9.01 | IC50 [5]: 17.8 nM | BAF3-FGFR3 (MIN IL3) pIC50 [6]: 7.64 | IC50 [7]: 1.51 nM | IC50 [8]: 0.912 nM | IC50 [9]: > 10 µM | IC50 [10]: 0.851 nM

COc1cc(OC)cc(N(Cc2noc(C)n2)c2ccc3ncc(-c4cnn(C)c4)nc3n2)c1 [Compound 186]
IC50 [1]: > 10 µM | BAF3-FGFR1 (MIN IL3) pIC50 [2]: 7.03 | BAF3-FGFR4 pIC50 [3]: 6.36 | pIC50 [4]: 7.92 | IC50 [5]: 45.7 nM | BAF3-FGFR3 (MIN IL3) pIC50 [6]: ~7.11 | IC50 [7]: 2.57 nM | IC50 [8]: 2.69 nM | IC50 [9]: > 10 µM | IC50 [10]: 2.45 nM

COc1cc(OC)cc(N(Cc2nnc(N)o2)c2ccc3ncc(-c4cnn(C)c4)nc3n2)c1 [Compound 188]
IC50 [1]: > 10 µM | BAF3-FGFR1 (MIN IL3) pIC50 [2]: 6.78 | BAF3-FGFR4 pIC50 [3]: 6.62 | pIC50 [4]: 8.79 | IC50 [5]: 33.9 nM | BAF3-FGFR3 (MIN IL3) pIC50 [6]: ~7.15 | IC50 [7]: 1.35 nM | IC50 [8]: 0.933 nM | IC50 [9]: > 10 µM | IC50 [10]: 1.66 nM
